Three compounds from patent US6406856B1, “Biosensor” (Aberdeen University, priority 1998, dated 2002) can be followed below.

The test system of data set [1] is dividing LucΔ S. cerevisiae strain cells. Description: Dividing cell assay, luciferase activity, 96-well plates. It is filed as cell-based, Saccharomyces cerevisiae. The settings on record: dilutions in 4.5% ethanol, 1x SC (-ura), exposure 3, 5, 7, 9 h. The protocol:
(§1) The following procedure was designed to monitor the effect of increasing the exposure time up to 9 hours and to determine the different responses of dividing and non-dividing biosensor cells to the presence of DNA-damaging agents. For assay preparation, the diluent used was ethanol at 4.5% final concentration. All ethidium bromide dilution standards were prepared in glassware. […] The black 96-well plates were covered with a plate sealer and incubated at 30° C. before and between readings. […] Additional of 100 μl citrate phosphate buffer (pH 2.5), containing 0.2 mM luciferin, was performed at each time point before luminescence quantification in a Lucy Anthos 1 luminometer using the Stingray (v2.0b31) software package. Following luminescence quantification 100 μl was removed from the blank well in the dividing assays for OD600 measurements and cell counts. […]
Thus in FIG. 13, the effect of ethidium bromide on dividing cells was measured by recording luciferase activity from cells in wells containing ethidium bromide dilutions prepared in 4.5% ethanol. […]

Data set [2] has as its system non-dividing LucΔ S. cerevisiae strain cells. Description: Non-dividing cell assay, light output, 96-well plates. It is filed as cell-based, Saccharomyces cerevisiae. The settings on record: dilutions in 4.5% ethanol, cells in ddH2O, exposure 3, 5, 7, 9 h. As to the method:
as §1
In FIG. 14, the effect of ethidium bromide on non-dividing cells was measured by recording the light output from cells in wells containing ethidium bromide dilutions prepared in 4.5% ethanol. […]

Data set [3] deals with S. cerevisiae pPLUCΔP biosensor. Description: S. cerevisiae pPLUCΔP biosensor luminescence toxicity assay. The settings on record: for detection of toxic substance by change in luminescence: 10 min exposure, toxicant at pH 5.5, FIGS. 5 and 6.
Protocol: In vivo luciferase activity assays using S. cerevisiae require acidification to allow the substrate for the light reaction (luciferin) to freely enter intact cells. Therefore, a two-step assay procedure was designed to incorporate separate toxicity analysis without pH adjustment and subsequent acidification for luminescence quantification. In preparation for the assay, S. cerevisiae cells were harvested at peak luminescence (around 3 to 4×10^8 cells/ml), centrifuged at 700 g (3000 rpm) and washed twice in 5 mM KCl; keeping the original volume constant for the first wash, but halved for second wash (allowing for modified dilution in assay). The first step (exposure), 50 μl of washed S. cerevisiae cells are added to a 450 μl sample (pH generally not important). In an alternative procedure the S. cerevisiae can also be resuspended in water rather than in 5 mM Kcl. The second step (acificiation), 500 μl citrate phosphate buffer (pH2.5), also containing the luciferan (0.1 mM final concentration in 1 ml sample), are added to make up 1 ml total volume for subsequent luminescence quantification. The exposure time is generally 10 minutes, but this can be lengthened or shortened depending on assay requirements (e.g. FIGS. 10a, 10b and 11). The assay allows for the full pH durability of S. cerevisiae to be exploited as prior pH adjustment of samples is not required. Luminescence of the sample containing cuvettes are compared to a blank containing diluent(s) used in the assay. This blank defines 100% luminescence.
Dilutions were then made of the stock solutions using deionised water adjusted to pH5.5, as above. The cells were harvested at peak luminescence, centrifuged at 700 g and washed twice in 5 M KCl; keeping the original volume constant. The toxicant (450 μl) was added to each cuvette. The final volume was then made up to 500 μl using 3 to 4×10^7 cells. After 10 min, 500 μl of citrate phosphate buffer (pH 2.5) containing 5 μl of 20 mM luciferin was added to each cuvette and the bioluminescence was monitored.

Consider `CC[n+]1c(-c2ccccc2)c2cc(N)ccc2c2ccc(N)cc21` [ethidium bromide], for which the “effect on dividing cells (luciferase activity)” value in data set [1] was “clear decrease in cell division”. Besides, the “effect on non-dividing cells (light output)” value in data set [2] is reported as “no clear toxic effect”.

Take `Oc1cc(Cl)cc(Cl)c1` [3,5-dichlorophenol]: in data set [3], the “detection of toxic substance by change in luminescence” value is “can detect”.

Turning to `[Cu]` [copper], the “detection of copper after 48 hours growth of the biosensor” value in data set [3] (10 min copper exposure, sensor cells used after 48 hours, FIG. 11) is recorded as “still actively detecting”. Further, the “detection of toxic substance by change in luminescence” value in data set [3] is “can detect”.
